Consider five compounds from patent US8975279B2, “Amine salts of laquinimod” (Teva Pharmaceutical Industries, Ltd., priority 2012, dated 2015).

The conditions of data set [1]: cited from earlier work.
For data set [2] the following is noted: cited from earlier work; for intrinsic solubility: free laquinimod in water.
Data set [3] can be described thus: Aqueous solubility of laquinimod and its salts. The format is physicochemical. To be noted: for Aqueous solubility: water.
A short description of data set [4]: Physical stability in glass vials at +5° C., air atmosphere. The class given is physicochemical. To be noted: for Sample appearance: glass vials, air atmosphere.
A short description of data set [5]: Physical stability on exposure to atmospheric air at room temperature. The class given is physicochemical.

Entries after “also recorded” stand apart in the source; their conditions may differ. Like-named read-outs stand apart in the source and are kept apart here.

On to `C[N+](C)(C)CCO.[OH-]` [Choline hydroxide], for which the pKa (usually the pH at which an ionisable group is half protonated) in data set [1] is reported as 13.9.

Consider `CCN(C(=O)c1c(O)c2c(Cl)cccc2n(C)c1=O)c1ccccc1` [laquinimod, N-ethyl-N-phenyl-1,2-dihydro-4-hydroxy-5-chloro-1-methyl-2-oxoquinoline-3-carboxamide], for which the figures for the intrinsic solubility in data set [2] and in data set [2] (listed as Free laquinimod) were 0.007 mg/mL and “about 0.007 mg/ml”, respectively. In data set [1], the pKa is 4.2.

On to `CCN(C(=O)c1c(O)c2c(Cl)cccc2n(C)c1=O)c1ccccc1` [Batch 15, laquinimod monoethanolamine], for which the Aqueous solubility in data set [3] was determined as 625 mg/ml H2O; in data set [3] (depends on preparation method and form, listed as 4.4) it was 625 mg/mL. The Sample appearance result in data set [4] (+5° C., 3 months) is listed as “off-white powder”; in data set [4] (+5° C., time 0 month) it was “White powder”. The “Physical stability (physical change)” value in data set [4] (sealed transparent glass vials at +5° C. for 3 months) was “Small physical change was observed; also recorded: color change was developed”. For the same compound, the Physical stability result in data set [5] (RH=29-32%, T=18-20° C., 4 hrs) was “no change; remained white powder”; in data set [5] (RH=29-32%, T=18-20° C., 25 hrs), “no change; remained white powder”.

On to `CCN(C(=O)c1c(O)c2c(Cl)cccc2n(C)c1=O)c1ccccc1` [Batch 1, laquinimod meglumine], for which the Aqueous solubility in data set [3] worked out at 1330 mg/ml H2O; in data set [3] (depends on preparation method and form, listed as 1.1) it was 1330 mg/mL. For the same compound, the “Physical stability (physical change)” value is “no sign of physical change” in data set [4] (+5° C., after 10 months of storage) and “No physical change was observed” in data set [4] (sealed transparent glass vials at +5° C. for 6 months). Moreover, the Sample appearance entry in data set [4] (+5° C., 6 months) is recorded as “White flowable powder”; in data set [4] (+5° C., last row of Table 7.A, time printed 0 month) it was “White flowable powder”; in data set [4] (+5° C., time 0 month), “White flowable powder”. Moreover, the Physical stability result in data set [5] (RH=38%, open dish, 20 hours) is given as “No signs of aggregation or deliquescence were observed”.

Take `CCN(C(=O)c1c(O)c2c(Cl)cccc2n(C)c1=O)c1ccccc1` [laquinimod sodium, reference compound]: the “solubility in water according to the USP” value in data set [3] (USP descriptive term) was “freely soluble to soluble”. Also, the Aqueous solubility in data set [2] (existing sodium salt, U.S. Pat. No. 7,589,208) is 138 mg/mL.
